# Laboratory results published in patent US20080176936A1, “Classes of Compounds that Interact with Integrins” (priority 2005, published 2008).
# How the values were obtained:
# αVβ3 integrin = molecular target: T1, αVβ3 integrin (Homo sapiens, UniProt P05106+P06756); assay: ELISA: inhibition of binding of αVβ3 integrin (source WM-115 cell line) to coated extracellular matrix protein; conditions: WM-115 cell line as integrin source
# T1 construct: the cell line WM-115 was used as a source of αVβ3 integrin; endogenous in cells; host or cells: WM-115 cell line
# Method in brief: (§1)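 Wells were coated with fibrinogen or vitronectin (10 µg/well), and integrin binding was measured by ELISA. αIIbβ3 came from human platelet membranes and αVβ3 from WM-115 cells, each preincubated with compound. Bound integrin was detected with a rabbit anti-β3 antibody, an HRP secondary and a colorimetric readout.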
# αllbβ3 integrin = molecular target: T2, αllbβ3 integrin (Homo sapiens, UniProt P05106+P08514); assay: ELISA: inhibition of binding of αllbβ3 integrin membrane preparation to coated extracellular matrix protein; conditions: human platelet membrane preparation
# T2 construct: Human platelet membrane preparations were used as a source of αllbβ3 integrin; from tissue; host or cells: human platelets (membrane preparation)
# Method in brief: as §1
# T2 sequence (P08514 32-887 limits assumed): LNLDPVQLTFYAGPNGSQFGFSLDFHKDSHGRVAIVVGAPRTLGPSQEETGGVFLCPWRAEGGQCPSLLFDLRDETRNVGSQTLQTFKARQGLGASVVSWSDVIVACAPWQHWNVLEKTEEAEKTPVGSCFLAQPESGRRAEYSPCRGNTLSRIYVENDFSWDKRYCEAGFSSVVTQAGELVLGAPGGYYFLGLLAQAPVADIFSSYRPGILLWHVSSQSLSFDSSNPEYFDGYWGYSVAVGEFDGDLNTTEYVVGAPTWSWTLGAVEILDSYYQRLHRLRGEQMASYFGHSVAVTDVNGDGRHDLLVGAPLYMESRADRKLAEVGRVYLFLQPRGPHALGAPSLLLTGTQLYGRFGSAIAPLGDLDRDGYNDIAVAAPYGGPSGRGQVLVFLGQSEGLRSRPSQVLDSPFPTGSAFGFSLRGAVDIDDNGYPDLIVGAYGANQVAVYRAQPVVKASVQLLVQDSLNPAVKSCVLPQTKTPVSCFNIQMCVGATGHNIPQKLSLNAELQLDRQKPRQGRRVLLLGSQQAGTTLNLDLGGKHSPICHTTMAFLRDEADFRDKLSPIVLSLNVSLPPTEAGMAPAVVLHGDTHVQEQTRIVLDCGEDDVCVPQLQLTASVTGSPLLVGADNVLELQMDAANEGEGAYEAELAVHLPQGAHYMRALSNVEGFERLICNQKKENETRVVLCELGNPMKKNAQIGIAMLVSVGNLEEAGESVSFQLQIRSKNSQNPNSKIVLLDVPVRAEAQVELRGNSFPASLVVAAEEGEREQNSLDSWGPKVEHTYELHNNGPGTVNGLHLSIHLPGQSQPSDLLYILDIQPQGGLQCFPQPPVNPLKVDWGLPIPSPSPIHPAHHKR
# T2 sequence (P08514 891-1039 partner limits assumed): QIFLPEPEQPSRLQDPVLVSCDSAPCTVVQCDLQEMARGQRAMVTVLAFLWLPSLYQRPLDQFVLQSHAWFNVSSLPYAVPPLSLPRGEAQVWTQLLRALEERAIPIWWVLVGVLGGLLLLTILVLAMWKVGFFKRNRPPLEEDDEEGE
# T2 sequence (P05106 27-788): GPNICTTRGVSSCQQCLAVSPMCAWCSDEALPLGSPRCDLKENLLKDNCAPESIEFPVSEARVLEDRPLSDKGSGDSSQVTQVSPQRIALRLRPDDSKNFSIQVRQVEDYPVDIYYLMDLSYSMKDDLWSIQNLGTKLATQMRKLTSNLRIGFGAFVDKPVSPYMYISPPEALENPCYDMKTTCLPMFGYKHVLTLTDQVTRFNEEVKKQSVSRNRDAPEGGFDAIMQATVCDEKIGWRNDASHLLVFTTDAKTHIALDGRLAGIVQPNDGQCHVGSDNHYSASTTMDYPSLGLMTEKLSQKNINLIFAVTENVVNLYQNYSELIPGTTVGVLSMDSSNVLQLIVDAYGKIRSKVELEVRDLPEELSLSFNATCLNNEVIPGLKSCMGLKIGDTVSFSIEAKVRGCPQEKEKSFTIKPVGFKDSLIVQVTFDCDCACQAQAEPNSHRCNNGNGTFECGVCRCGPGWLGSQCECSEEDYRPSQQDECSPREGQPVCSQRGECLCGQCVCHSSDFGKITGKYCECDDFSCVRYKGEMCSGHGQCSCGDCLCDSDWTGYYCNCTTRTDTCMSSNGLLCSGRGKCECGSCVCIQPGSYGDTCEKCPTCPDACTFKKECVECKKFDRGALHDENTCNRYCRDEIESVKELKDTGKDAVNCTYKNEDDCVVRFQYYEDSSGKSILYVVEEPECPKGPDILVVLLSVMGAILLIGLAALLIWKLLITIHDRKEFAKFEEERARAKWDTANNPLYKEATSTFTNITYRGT
# T1 sequence (P06756 31-889 limits assumed): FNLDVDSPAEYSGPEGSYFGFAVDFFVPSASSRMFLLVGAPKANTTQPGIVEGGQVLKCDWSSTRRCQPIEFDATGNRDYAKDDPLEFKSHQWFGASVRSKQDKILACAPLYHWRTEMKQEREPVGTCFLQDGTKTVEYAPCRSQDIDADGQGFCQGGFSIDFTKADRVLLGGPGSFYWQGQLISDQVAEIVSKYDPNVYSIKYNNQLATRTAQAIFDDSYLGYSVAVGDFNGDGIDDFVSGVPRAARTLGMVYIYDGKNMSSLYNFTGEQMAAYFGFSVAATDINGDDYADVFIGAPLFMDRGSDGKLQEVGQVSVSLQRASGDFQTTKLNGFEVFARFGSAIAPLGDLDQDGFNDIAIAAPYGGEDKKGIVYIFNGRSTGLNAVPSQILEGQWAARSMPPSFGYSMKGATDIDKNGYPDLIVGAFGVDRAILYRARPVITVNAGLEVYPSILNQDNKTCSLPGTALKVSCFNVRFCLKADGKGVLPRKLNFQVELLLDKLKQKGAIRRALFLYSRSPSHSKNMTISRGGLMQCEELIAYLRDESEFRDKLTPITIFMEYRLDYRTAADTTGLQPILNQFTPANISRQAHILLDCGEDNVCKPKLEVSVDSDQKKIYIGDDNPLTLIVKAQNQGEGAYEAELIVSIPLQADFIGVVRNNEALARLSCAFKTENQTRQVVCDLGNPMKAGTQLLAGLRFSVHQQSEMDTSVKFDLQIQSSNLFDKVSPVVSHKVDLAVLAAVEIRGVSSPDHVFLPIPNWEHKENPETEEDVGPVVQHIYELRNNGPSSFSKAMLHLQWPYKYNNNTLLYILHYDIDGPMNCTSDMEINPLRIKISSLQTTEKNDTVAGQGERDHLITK
# T1 sequence (P06756 891-1048 partner limits assumed): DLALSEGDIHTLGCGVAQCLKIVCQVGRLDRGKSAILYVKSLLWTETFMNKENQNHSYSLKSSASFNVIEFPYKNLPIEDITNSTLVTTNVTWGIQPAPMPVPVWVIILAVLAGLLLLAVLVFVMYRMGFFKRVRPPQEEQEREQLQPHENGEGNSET
# T1 sequence (P05106 27-788): as the sequence (P05106 27-788) above
SMILES,INHIBITION 250 uM RECEPTOR aVb3 SUBSTRATE FIBRINOGEN (αVβ3 integrin),INHIBITION @ 250 uM RECEPTOR allBb3 SUBSTRATE FIBRINOGEN (αllbβ3 integrin),INHIBITION 250 uM RECEPTOR allBb3 SUBSTRATE VITRONECTIN (αllbβ3 integrin)
"CCOC1OC(COCC(=O)O)C(O)C(OCc2cccc(N)c2)C1NC(=O)c1ccc(Cl)cc1 (single isomer, unassigned) [Compound 76]",− (0% to 35% inhibition at 250 micromolar),− (0% to 35% inhibition at 250 micromolar),− (0% to 35% inhibition at 250 micromolar)
"COC1OC(COCc2cccc(N)c2)C(O)C(OCC(=O)O)C1NC(=O)c1ccc(Cl)cc1 (single isomer, unassigned) [Compound 10]",+++ (81% to 100% inhibition at 250 micromolar),++ (61% to 80% inhibition at 250 micromolar),+++ (81% to 100% inhibition at 250 micromolar)
"CCOC1OC(COCc2ccccc2)C(O)C(OCc2cccc(N)c2)C1NC(=O)c1ccc(C(=O)O)cc1 (single isomer, unassigned) [Compound 68]",++ (61% to 80% inhibition at 250 micromolar),− (0% to 35% inhibition at 250 micromolar),++ (61% to 80% inhibition at 250 micromolar)
"N=C(N)NCCC(=O)NC1C(OCc2ccccc2)OC(CO)C(O)C1OCC(=O)O (single isomer, unassigned) [Compound 94]",− (0% to 35% inhibition at 250 micromolar),− (0% to 35% inhibition at 250 micromolar),+ (36% to 60% inhibition at 250 micromolar)
"COCC1OC(OCc2ccccc2)C(NC(=O)CCNC(=N)N)C(OCC(=O)O)C1O (single isomer, unassigned) [Compound 91]",− (0% to 35% inhibition at 250 micromolar),+ (36% to 60% inhibition at 250 micromolar),+ (36% to 60% inhibition at 250 micromolar)
"CCOC1O[C@H](COCc2ccc(Br)cc2)[C@@H](O)[C@H](OCC(=O)O)[C@H]1NC(=O)CCNC(=N)N (single isomer, unassigned) [Compound 50]",+++ (81% to 100% inhibition at 250 micromolar),+ (36% to 60% inhibition at 250 micromolar),+++ (81% to 100% inhibition at 250 micromolar)
"CCOC1O[C@H](COCc2ccccc2)[C@@H](O)[C@H](OCc2ccc(C(=O)O)cc2)[C@H]1NC(=O)CCNC(=N)N (single isomer, unassigned) [Compound 57]",+++ (81% to 100% inhibition at 250 micromolar),− (0% to 35% inhibition at 250 micromolar),+++ (81% to 100% inhibition at 250 micromolar)
"CCOC1C(O)C(COCc2ccc(C(=O)O)cc2)OC(OCc2ccccc2)C1NC(=O)CCNC(=N)N (single isomer, unassigned) [Compound 86]",− (0% to 35% inhibition at 250 micromolar),− (0% to 35% inhibition at 250 micromolar),+++ (81% to 100% inhibition at 250 micromolar)
"CCOC1O[C@H](COCc2cccc(N)c2)[C@@H](O)[C@H](OCc2ccc(Br)cc2)[C@H]1NC(=O)CCC(=O)O (single isomer, unassigned) [Compound 45]",+++ (81% to 100% inhibition at 250 micromolar),++ (61% to 80% inhibition at 250 micromolar),+++ (81% to 100% inhibition at 250 micromolar)
"Nc1cccc(C(=O)NC2C(OCc3ccccc3)OC(CO)C(O)C2OCc2ccc(C(=O)O)cc2)c1 (single isomer, unassigned) [Compound 102]",+++ (81% to 100% inhibition at 250 micromolar),− (0% to 35% inhibition at 250 micromolar),+++ (81% to 100% inhibition at 250 micromolar)
"CCOCC1OC(OCc2ccccc2)C(NC(=O)c2ccc(C(=O)O)cc2)C(OCc2cccc(N)c2)C1O (single isomer, unassigned) [Compound 107]",− (0% to 35% inhibition at 250 micromolar),− (0% to 35% inhibition at 250 micromolar),+++ (81% to 100% inhibition at 250 micromolar)
"COC1OC(COCC(=O)O)C(O)C(OCc2ccccc2)C1NC(=O)c1cc(N)cc(N)c1 (single isomer, unassigned) [Compound 131]",− (0% to 35% inhibition at 250 micromolar),+ (36% to 60% inhibition at 250 micromolar),+++ (81% to 100% inhibition at 250 micromolar)
"CCC(=O)NC1C(OCc2ccccc2)OC(COCc2ccc(C(=O)O)cc2)C(O)C1OCc1cccc(N)c1 (single isomer, unassigned) [Compound 112]",+++ (81% to 100% inhibition at 250 micromolar),− (0% to 35% inhibition at 250 micromolar),+++ (81% to 100% inhibition at 250 micromolar)
"CCOCC1OC(OCc2ccccc2)C(NC(=O)c2cccc(N)c2)C(OCc2ccc(C(=O)O)cc2)C1O (single isomer, unassigned) [Compound 99]",− (0% to 35% inhibition at 250 micromolar),− (0% to 35% inhibition at 250 micromolar),++ (61% to 80% inhibition at 250 micromolar)
"COC1OC(COCc2ccc(Br)cc2)C(O)C(OCc2cccc(N)c2)C1NC(=O)CCC(=O)O (single isomer, unassigned) [Compound 25]",+++ (81% to 100% inhibition at 250 micromolar),+ (36% to 60% inhibition at 250 micromolar),+++ (81% to 100% inhibition at 250 micromolar)
"COC1OC(COCC(=O)O)C(O)C(OCc2ccccc2)C1NC(=O)CCCN (single isomer, unassigned) [Compound 123]",− (0% to 35% inhibition at 250 micromolar),+ (36% to 60% inhibition at 250 micromolar),+++ (81% to 100% inhibition at 250 micromolar)
